Experimental findings from patent US7807686B2, “2-(4-oxo-4H-quinazolin-3-yl)acetamides and their use as vasopressin V3 antagonists” (N.V. Organon, priority 2005, dated 2010) are described below.

Structures can show the parent of a compound that is named as a salt. Where only a bound is given, the exact number is not on record here.

The experiment concerns the target T1, human V3 receptor (Homo sapiens, UniProt P47901).
T1 construct: expressed in transfected cells
T1 sequence (P47901 1-424): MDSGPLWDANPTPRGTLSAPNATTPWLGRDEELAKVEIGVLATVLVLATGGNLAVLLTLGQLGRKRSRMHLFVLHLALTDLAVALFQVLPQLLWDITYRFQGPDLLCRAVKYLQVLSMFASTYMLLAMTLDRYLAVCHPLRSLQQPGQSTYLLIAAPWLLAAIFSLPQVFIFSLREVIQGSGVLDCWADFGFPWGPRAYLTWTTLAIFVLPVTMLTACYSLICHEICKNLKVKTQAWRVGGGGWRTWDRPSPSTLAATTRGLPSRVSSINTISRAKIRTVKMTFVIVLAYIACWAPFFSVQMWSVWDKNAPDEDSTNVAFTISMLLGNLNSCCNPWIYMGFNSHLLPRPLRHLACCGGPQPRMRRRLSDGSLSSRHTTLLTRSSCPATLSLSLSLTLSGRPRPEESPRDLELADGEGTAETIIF
The experiment in a line: [3H]AVP binding to CHO cells stably expressing the human V3 receptor. As to conditions: Ki from displacement of [3H]AVP (2.5×10^-9 mol.L^-1). As to the method:
Chinese Hamster Ovary (CHO) cells stably expressing the human V3 receptor were incubated to equilibrium with the test compound (at a final assay concentration of 10^−11 mol.L^−1 to 10^−5 mol.L^−1) and [^3H]AVP (at a final assay concentration of 2.5×10^−9 mol.L^−1). […] After washing with ice-cold phosphate buffered saline (PBS), scintillation fluid was added and the plates counted on a Topcount NXT apparatus.
A sigmoidal dose response curve (non-linear regression, variable slope) was plotted as concentration of test compound (mol.L^−1) against percentage specific binding of [^3H]AVP and a Ki value was calculated. Each determination was carried out in triplicate and repeated on at least 3 separate occasions
The Ki is a measure of affinity in units of concentration, obtained from inhibition or displacement. `CC(C)NC(=O)Cn1c(-c2cc(F)c(F)c(F)c2)nc2ccc(OCCCN3CCCCC3)cc2c1=O` [EXAMPLE 1f, N-Isopropyl-2-[4-oxo-6-(3-piperidin-1-ylpropoxy)-2-(3,4,5-trifluorophenyl)-4H-quinazolin-3-yl]acetamide] displayed a Ki of 10 to 100 nM.

In turn, `COc1cccc(-c2nc3ccc(OCCCN4CCCCC4)cc3c(=O)n2CC(=O)NC(C)C)n1` [EXAMPLE 1h, N-Isopropyl-2-[2-(6-methoxypyridin-2-yl)-4-oxo-6-(3-piperidin-1-ylpropoxy)-4H-quinazolin-3-yl]acetamide] had a Ki of less than 10 nM. In turn, `CC(C)(C)NC(=O)Cn1c(-c2cccc(Cl)c2)nc2ccc(OCCCN3CCCCC3)cc2c1=O` [EXAMPLE 2f, N-tert-Butyl-2-[2-(3-chlorophenyl)-4-oxo-6-(3-piperidin-1-ylpropoxy)-4H-quinazolin-3-yl]acetamide] showed a Ki of less than 10 nM. Turning to `COc1cc(-c2nc3ccc(OCCCN4CCC(O)CC4)cc3c(=O)n2CC(=O)NC(C)C)ccc1F` [EXAMPLE 2p, 2-{2-(4-Fluoro-3-methoxyphenyl)-6-[3-(4-hydroxypiperidin-1-yl)propoxy]-4-oxo-4H-quinazolin-3-yl}-N-isopropylacetamide], the inhibition constant (Ki) was less than 10 nM. The same measure for `COc1cccc(-c2nc3cc(C)c(OCCCN4CCCCC4)cc3c(=O)n2CC(=O)NC(C)C)c1` [EXAMPLE 2w, N-Isopropyl-2-[2-(3-methoxyphenyl)-7-methyl-4-oxo-6-(3-piperidin-1-ylpropoxy)-4H-quinazolin-3-yl]acetamide]: less than 10 nM; for `CC(C)NC(=O)Cn1c(-c2cccc(Cl)c2)nc2ccc(OCCCN3CCCCC3)cc2c1=O` [EXAMPLE 3a, 2-[2-(3-Chlorophenyl)-4-oxo-6-(3-piperidin-1-ylpropoxy)-4H-quinazolin-3-yl]-N-isopropylacetamide hydrochloride]: less than 10 nM; for `COc1cc(OC)cc(-c2nc3ccc(OCCCN4CCOCC4)cc3c(=O)n2CC(=O)NCC2CC2)c1` [EXAMPLE 3k, N-Cyclopropylmethyl-2-[2-(3,5-dimethoxyphenyl)-6-(3-morpholin-4-ylpropoxy)-4-oxo-4H-quinazolin-3-yl]acetamide]: less than 10 nM. Turning to `COc1ccc(CN(CCCN2CCCCC2)c2ccc3nc(-c4cccc(OC)c4)n(CC(=O)NC(C)C)c(=O)c3c2)cc1` [EXAMPLE 3r, N-Isopropyl-2-[6-[(4-methoxybenzyl)-(3-piperidin-1-ylpropyl)amino]-2-(3-methoxyphenyl)-4-oxo-4H-quinazolin-3-yl]acetamide], the Ki was in the range of 10 to 100 nM. Regarding `COc1cccc(-c2nc3ccc(SCCCN4CCCCC4)cc3c(=O)n2CC(=O)NC(C)C)c1` [EXAMPLE 3t, N-Isopropyl-2-[2-(3-methoxyphenyl)-4-oxo-6-(3-piperidin-1-ylpropylsulfanyl)-4H-quinazolin-3-yl]acetamide], the inhibitory constant (Ki) was 10 to 100 nM. Take `CC(C)NC(=O)Cn1c(-c2cccc(F)c2)nc2ccc(OC[C@@H](C)CN3CCOCC3)cc2c1=O` [EXAMPLE 4g, (S)-(+)-2-[2-(3-Fluorophenyl)-6-(2-methyl-3-morpholin-4-ylpropoxy)-4-oxo-4H-quinazolin-3-yl]-N-isopropylacetamide]: the Ki was less than 10 nM. As to `COc1cccc(-c2nc3ccc(OC[C@@H](C)CN4CCC4)cc3c(=O)n2CC(=O)NC(C)C)c1` [EXAMPLE 4i, (S)-(+)-2-[6-(3-Azetidin-1-yl-2-methylpropoxy)-2-(3-methoxyphenyl)-4-oxo-4H-quinazolin-3-yl]-N-isopropylacetamide], the inhibition constant Ki lay within 10 to 100 nM.

Take `CCCNC(=O)Cn1c(-c2cccc(OC)c2)nc2ccc(OC[C@@H](C)CN3CCCCC3)cc2c1=O` [EXAMPLE 4n, (S)-(+)-2-[2-(3-Methoxyphenyl)-6-(2-methyl-3-piperidin-1-ylpropoxy)-4-oxo-4H-quinazolin-3-yl]-N-propylacetamide]: the Ki was less than 10 nM. The figure for `O=C(Cn1c(-c2ccccc2)nc2ccc(OCCCN3CCCCCC3)cc2c1=O)NCC1CC1` [EXAMPLE 4q, 2-[6-(3-Azepan-1-ylpropoxy)-4-oxo-2-phenyl-4H-quinazolin-3-yl]-N-cyclopropylmethylacetamide] is 100 to 1000 nM; for `COc1cccc(-c2nc3ccc(-c4cc(CN(C)C)ccc4F)cc3c(=O)n2CC(=O)NC(C)C)c1` [EXAMPLE 6a, 2-[6-(5-Dimethylaminomethyl-2-fluorophenyl)-2-(3-methoxyphenyl)-4-oxo-4H-quinazolin-3-yl]-N-isopropylacetamide] it is less than 10 nM. Compound `COc1cccc(-c2nc3ccc(-c4cccc(CN(C)C)n4)cc3c(=O)n2CC(=O)NC(C)C)c1` [EXAMPLE 6b, 2-[6-(6-Dimethylaminomethylpyridin-2-yl)-2-(3-methoxyphenyl)-4-oxo-4H-quinazolin-3-yl]-N-isopropylacetamide] registered a Ki of 10 to 100 nM. Compound `COc1cccc(-c2nc3ccc(-c4cccc(CN(C)CC(C)C)c4)cc3c(=O)n2CC(=O)NC(C)C)c1` [EXAMPLE 7p, 2-[6-{3-[(Isobutylmethylamino)methyl]phenyl}-2-(3-methoxyphenyl)-4-oxo-4H-quinazolin-3-yl]-N-isopropylacetamide] had an inhibitory constant (Ki) of 10 to 100 nM. The compound `COc1cccc(-c2nc3ccc(-c4cccc(CN5CCOCC5)c4)cc3c(=O)n2CC(=O)NC(C)C)c1` [EXAMPLE 7u, N-Isopropyl-2-[2-(3-methoxyphenyl)-6-(3-morpholin-4-ylmethylphenyl)-4-oxo-4H-quinazolin-3-yl]acetamide] displayed a Ki of less than 10 nM. Consider `C=CCNC(=O)Cn1c(-c2ccccc2)nc2ccc(-c3cccc(CN4CCCCC4)c3)cc2c1=O` [EXAMPLE 7x, N-Allyl-2-[4-oxo-2-phenyl-6-(3-piperidin-1-ylmethylphenyl)-4H-quinazolin-3-yl]acetamide], for which the Ki lay in the range of 100 to 1000 nM. For the compound `COc1cccc(-c2nc3ccc(-c4ccc(CN5CCC5)o4)cc3c(=O)n2CC(=O)NC(C)C)c1` [EXAMPLE 9a, 2-[6-(5-Azetidin-1-ylmethylfuran-2-yl)-2-(3-methoxyphenyl)-4-oxo-4H-quinazolin-3-yl]-N-isopropylacetamide], the Ki lay in the range of 10 to 100 nM.

For `COc1cccc(-c2nc3ccc(/C=C/CCN4CCOCC4)cc3c(=O)n2CC(=O)NC(C)C)c1` [EXAMPLE 10b, N-Isopropyl-2-[2-(3-methoxyphenyl)-6-(4-morpholin-4-ylbut-1-enyl)-4-oxo-4H-quinazolin-3-yl]acetamide], the Ki was in the range of 10 to 100 nM. Regarding `COc1cccc(-c2nc3ccc(CCCCN4CCCC4)cc3c(=O)n2CC(=O)NC(C)C)c1` [EXAMPLE 11b, N-Isopropyl-2-[2-(3-methoxyphenyl)-4-oxo-6-(4-pyrrolidin-1-ylbutyl)-4H-quinazolin-3-yl]acetamide], the Ki lay within 10 to 100 nM. The same measure for `COc1cccc(-c2nc3ccc(OCCC4CCCCN4C)cc3c(=O)n2CC(=O)NC(C)C)c1` (stereo not drawn) [EXAMPLE 12a, N-Isopropyl-2-[2-(3-methoxyphenyl)-6-[2-(1-methylpiperidin-2-yl)ethoxy]-4-oxo-4H-quinazolin-3-yl]acetamide]: 100 to 1000 nM; for `COc1cccc(-c2nc3ccc(NCCCN4CCCCC4)cc3c(=O)n2CC(=O)NC(C)C)c1` [EXAMPLE 13a, N-Isopropyl-2-[2-(3-methoxyphenyl)-4-oxo-6-(3-piperidin-1-ylpropylamino)-4H-quinazolin-3-yl]acetamide]: 100 to 1000 nM.

The compound `COc1cccc(-c2nc3ccc(OCC4CCCN(C)C4)cc3c(=O)n2CC(=O)NC(C)C)c1` (stereo not drawn) [EXAMPLE 14a, N-Isopropyl-2-[2-(3-methoxyphenyl)-6-(1-methylpiperidin-3-ylmethoxy)-4-oxo-4H-quinazolin-3-yl]acetamide] returned an inhibition constant Ki of 100 to 1000 nM.
